Where “and” joins values, the source holds several entries; their conditions need not be identical. Identical values can stand only once. Entries after “also recorded” stand apart in the source; their conditions may differ. Like-named read-outs stand apart in the source and are kept apart here.
How the values were obtained:
α4β1 receptors = molecular target: T1, α4β1 receptors (Mus musculus, UniProt P50571+Q9D6F4); assay: Two-electrode voltage-clamp of murine α4β1 GABAA receptors expressed in Xenopus oocytes; assay type: cell-based; details: for EC50: GABA-activated peak currents, oocytes clamped at -60 mV
T1 construct: expressed in transfected cells; host or cells: Xenopus laevis oocytes, cDNA-injected (pRK5 vector), ratio 1:1
Protocol: (§1) Oocytes from Xenopus laevis toads were prepared as described. […] To obtain free oocytes, ovarian lobes were cut into pieces and incubated in OR2 (85 mM NaCl, 5 mM HEPES, 1 mM MgCl2, pH adjusted to 7.6 with KOH) supplemented with 2-2.5 mg/mL collagenase type 1 (Lorne Laboratories, Danehill, UK) for 3-4 hrs. Oocytes were washed several times in OR2 and subsequently in Barth’s solution (88 mM NaCl, 1 mM KCl, 0.33 mM Ca(NO3)2, 0.41 mM CaCl2, 0.82 mM MgSO4, 2.4 mM NaHCO3, 10 mM HEPES, pH adjusted to 7.6 with NaOH) to isolate cells and remove follicular membranes. After preparation, the oocytes were injected with 27 or 55 nL of 30 ng/μL cDNA in a ratio of 1:1 (α4β1) or 1:1:5 (α4β1δ). Oocytes were subsequently maintained at 18°C in Barth’s solution supplemented with gentamycin (Invitrogen, Paisley, UK).
(§2) Electrodes were filled with 3 M KCl and had resistances of 0.5 to 3 MΩ. The oocytes were clamped at a holding potential of -60 mV and were perfused with buffer (100 mM NaCl, 2 mM KCl, 2 mM CaCl2, 1 mM MgCl2, 5 mM HEPES, pH adjusted to 7.4 with NaOH) throughout the recordings. All currents were adjusted when necessary for voltage drop using equation 1:1 I=Imeasured⋅Vh−Vrev/Vh−Vrev+ΔV
(§3) Drugs were applied using a fast application system coupled to a small bath volume ([…]), enabling drug onset times of ~ 10 ms.
(§4) For each co-application, the peak-response was measured. […] All monophasic inhibition-curves were fitted to a modified version of equation 2.

α4β1δ receptors = molecular target: T2, α4β1δ receptors (UniProt P18506+P50571+Q9D6F4); assay: Two-electrode voltage-clamp of murine α4β1δ GABAA receptors expressed in Xenopus oocytes; assay type: cell-based, mouse
T2 construct: expressed in transfected cells; host or cells: Xenopus laevis oocytes, cDNA-injected (pRK5 vector), ratio 1:1:5
Protocol: as §1, §2, §3, §4
Normalized responses were pooled and plotted as mean ± SEM from at least four different oocytes taken from at least two different Xenopus toads. For statistical evaluation, a repeated measures ANOVA with Dunnett’s post test was used. The significance level was set at *P < 0.05, **P < 0.01, ***P < 0.001. For inhibition curves, an F-test was performed to determine whether the data was either monophasic or biphasic.

α1β2γ2 receptors = details: steady-state GABA responses, HEK293 cells; cited from earlier work
α6β3δ receptors = details: cited from earlier work
α2β1γ2 receptors = details: Xenopus oocytes; cited from earlier work
[1] = GABA EC75 (8 μM), biphasic inhibition
[2] = inhibition of peak response to GABA EC75 (3 μM), 1 min pre-incubation
[3] = inhibition of steady-state (desensitized) response after 70 s co-application with GABA EC75 (3 μM)
[4] = Hill coefficient of GABA concentration response curve
[5] = depending upon expression levels
[6] = inhibition of peak response to GABA EC20 after pre-application

T1 sequence (Q9D6F4 36-552): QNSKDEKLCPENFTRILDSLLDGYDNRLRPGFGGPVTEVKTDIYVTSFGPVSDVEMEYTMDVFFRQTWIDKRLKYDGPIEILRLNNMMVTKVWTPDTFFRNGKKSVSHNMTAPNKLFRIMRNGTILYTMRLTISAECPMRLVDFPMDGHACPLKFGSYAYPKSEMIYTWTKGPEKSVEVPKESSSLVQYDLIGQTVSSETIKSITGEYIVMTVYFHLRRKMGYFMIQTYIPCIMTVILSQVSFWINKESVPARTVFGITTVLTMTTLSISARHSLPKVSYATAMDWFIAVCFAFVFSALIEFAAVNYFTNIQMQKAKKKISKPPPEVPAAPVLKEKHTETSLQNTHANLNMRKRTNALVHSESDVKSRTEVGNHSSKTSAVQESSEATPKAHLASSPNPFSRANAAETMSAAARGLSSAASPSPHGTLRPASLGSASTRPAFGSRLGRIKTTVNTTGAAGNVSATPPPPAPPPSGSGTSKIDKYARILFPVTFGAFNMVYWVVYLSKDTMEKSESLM
T1 sequence (P50571 26-474): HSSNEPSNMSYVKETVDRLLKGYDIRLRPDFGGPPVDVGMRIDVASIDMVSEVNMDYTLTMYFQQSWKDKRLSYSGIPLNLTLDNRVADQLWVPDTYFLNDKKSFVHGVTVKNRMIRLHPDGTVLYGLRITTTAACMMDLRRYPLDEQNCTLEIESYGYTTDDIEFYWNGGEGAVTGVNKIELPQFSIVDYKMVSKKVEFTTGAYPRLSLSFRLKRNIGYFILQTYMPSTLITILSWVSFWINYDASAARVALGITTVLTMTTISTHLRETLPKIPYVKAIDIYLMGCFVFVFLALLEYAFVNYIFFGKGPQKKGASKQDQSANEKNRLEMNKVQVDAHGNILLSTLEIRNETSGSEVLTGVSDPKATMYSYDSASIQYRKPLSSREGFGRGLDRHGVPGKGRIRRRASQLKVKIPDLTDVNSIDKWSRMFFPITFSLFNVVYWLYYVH
T2 sequence (Q9D6F4 36-552): as the sequence (Q9D6F4 36-552) above
T2 sequence (P50571 26-474): as the sequence (P50571 26-474) above
T2 sequence (P18506 17-449 limits assumed): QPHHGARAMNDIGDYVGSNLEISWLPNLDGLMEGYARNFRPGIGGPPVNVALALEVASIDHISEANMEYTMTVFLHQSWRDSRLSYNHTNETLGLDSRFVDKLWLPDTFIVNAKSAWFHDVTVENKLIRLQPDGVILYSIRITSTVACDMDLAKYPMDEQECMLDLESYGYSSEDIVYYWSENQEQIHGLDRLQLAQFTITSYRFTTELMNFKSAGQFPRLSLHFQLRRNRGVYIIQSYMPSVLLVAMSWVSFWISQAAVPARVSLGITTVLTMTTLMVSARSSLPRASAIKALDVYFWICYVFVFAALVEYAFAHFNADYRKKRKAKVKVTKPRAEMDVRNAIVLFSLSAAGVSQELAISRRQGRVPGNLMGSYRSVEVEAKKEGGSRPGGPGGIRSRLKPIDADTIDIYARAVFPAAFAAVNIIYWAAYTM

With `[Cl-].[Cl-].[Zn+2]` [Zn^2+] the “share of the total inhibition, high potency component (IC50A)” value (α4β1 receptors; [1]) was ~ 25%, the “share of the total inhibition, lower potency component (IC50B)” value (α4β1 receptors; [1]) was ~ 75% and the “pIC50A ± SEM” value (α4β1 receptors; GABA EC75 (8 μM), high potency component of two-site fit) was 9.87 ± 0.22. The IC50 (α4β1 receptors; GABA EC75 (8 μM), high potency component of two-site fit, read-out: IC50A) was 0.13 nM, the “pIC50B ± SEM” value (α4β1 receptors; GABA EC75 (8 μM), lower potency component of two-site fit) was 7.25 ± 0.13 and the IC50 (α4β1 receptors; GABA EC75 (8 μM), lower potency component of two-site fit, read-out: IC50B) was 56 nM. For the same compound, the “nH (± SEM)” value (α4β1 receptors; Hill slope of IC50B component, GABA EC75) was -1.1 ± 0.13, the “nH (± SEM)” value (α4β1δ receptors; Hill slope of inhibition curve, peak response, GABA EC75) was −0.75 ± 0.041 and the “potency shift in IC50 values, α4β1δ versus α4β1” value (α4β1δ receptors; from low micromolar to mid nanomolar) was “approximately 60 fold”. The IC50 (α4β1δ receptors; [2]) was 3300 nM and the “pIC50 ± SEM” value (α4β1δ receptors; [2]) was 5.48 ± 0.03.

For `[Cl][Cu][Cl]` [Cu^2+], the IC50 (α1β2γ2 receptors) is listed as 85000 nM, the “nH (± SEM)” value (α4β1δ receptors; Hill slope of inhibition curve, steady-state response, GABA EC75) is listed as −1.2 ± 0.13 and the “maximal inhibition of desensitized GABA responses” value (α4β1δ receptors; at 10 μM, GABA EC75, oocytes) is listed as 98 % inhibition. The IC50 (α4β1δ receptors; [3]) was 820 nM, the “pIC50 ± SEM” value (α4β1δ receptors; [3]) was 6.09 ± 0.04 and the “maximal inhibition of the steady-state response” value (α6β3δ receptors; HEK293) was ~ 68%. The IC50 (α6β3δ receptors; steady-state GABA responses, HEK293 cells) was 65 nM.

With `NCCCC(=O)O` [GABA, γ-Aminobutyric acid] the EC50 (α4β1 receptors; read-out: EC50) was 2700 nM, the EC50 (α4β1 receptors; read-out: pEC50 ± SEM (converted)) was 2750 nM and the “nH (± SEM)” value (α4β1 receptors; [4]) was 0.87 and 0.87 ± 0.079. The “maximal currents to GABA” value (α4β1 receptors; [5]) was 100 to 3000 nA, the “nH (± SEM)” value (α4β1δ receptors; [4]) was 1.1 and 1.1 ± 0.11 and the “maximal currents to GABA” value (α4β1δ receptors; [5]) was 300 to 3000 nA.

With `O=C(N/N=C/c1ccccc1O)c1ccccc1O` [SCS, salicylidine salicylhydrazide] the “steady-state level of inhibition” value (α4β1δ receptors; GABA EC20, incomplete inhibition of the GABA current) was 67.2 ± 3.2 % of control, the IC50 (α4β1δ receptors; [6]) was 4.2 nM and the “pIC50 ± SEM” value (α4β1δ receptors; [6]) was 8.37 ± 0.25. For the same compound, the IC50 (α2β1γ2 receptors) was 4.36 nM and the maximum inhibition (α2β1γ2 receptors) was ~ 33%.

For `C[C@]12CC[C@@H](O)C[C@H]1CC[C@@H]1[C@@H]2CC[C@]2(C)[C@@H](C(=O)CO)CC[C@@H]12` [THDOC, tetrahydro-deoxycorticosterone], the “potentiation of GABA peak-response” value (α4β1δ receptors; THDOC 30 and 100 nM co-applied with GABA EC7, P < 0.05) was “significantly increased; also recorded: significant increase; also recorded: able to potentiate”.

— article PMC4359537, “Pharmacological characterisation of murine α4β1δ GABAA receptors expressed in Xenopus oocytes” (BMC Neuroscience, 2015)
